# Literature values in patent publication US11065330B2, “Induction of antigen-specific tolerance by peripheral phagocytosis” (PLS-Design GmbH, priority 2014, dated 2021).
# “Also recorded” adds a separate entry of the source. Read-outs that look alike come from different tables or passages of the source. Where no end group is shown, it is not given here.
# B1: Q116D/Y119D: murine IL-4 double mutant inhibiting IL-4/IL-13-mediated effects (protein, UniProt P07750 21-140, looked up, variant Q116D Y119D)
# Interleukin-4: HIHGCDKNHLREIIGILNEVTGEGTPCTEMDVPNVLTATKNTTESELVCRASKVLRIFYLKHGKTPCLKKNSSVLMELQRLFRAFRCLDSSISCTMNESKSTSLKDFLESLKSIMDMDDS
# What was measured:
# murine CD22 = murine CD22 (Mus musculus, UniProt P35329)
# [1] = for solubility in 1:5 solution of ethanol:PBS: 1:5 ethanol:PBS, pH 7.2
# EAE model = settings: i.p. 5 μg/kg every 2 days
# [2] = system: Lyme arthritis and collagen-induced arthritis in mice; settings: diet, 20 ng/mouse/day
# [3] = system: OVA-induced allergic asthma in mice; settings: 10 ng with 100 μg OVA immunotherapy
# [4] = system: human polymorphonuclear leukocyte (PMN) transendothelial migration; settings: read-out: EC50, reduction of PMN transendothelial migration
# [5] = system: mouse model of peritonitis; settings: 100 ng dose
# NF-kappa B translocation = settings: read-out: concentration for 50% inhibition
# IL-4 gene transcription = settings: read-out: concentration for 50% inhibition
# phagocytes = settings: for maximal migration of phagocytes, increase: at about 100 nM
# [6] = system: isolated rat cardiomyocytes; design: dose or concentration left out as unconfirmed; settings: preincubation 2-3 hours, GSM or exogenous NAC
# [7] = system: ovalbumin-specific IgE and IgG1 responses
# cystic fibrosis = settings: oral 600 mg to 1000 mg three times daily, 4 weeks
# [8] = not given; remark: listed apart in the source
# [9] = system: intestinal ischaemia/reperfusion injury model; settings: 10 mg/kg i.v., rats
# rheumatoid arthritis = settings: three months, on methotrexate
# psoriasis = settings: more than 10 years clinical use
# calcium metabolism = settings: compared to 1,25-(OH)2D3
# [10] = system: OVA-induced allergy in mice; settings: topical calcipotriol, then transcutaneous OVA with CpG adjuvant
# [11] = for time detectable in serum by HPLC: rats
# asthma exacerbation = settings: six months, budesonide 800 μg/d and cholecalciferol 500 IU
# [12] = system: baboon model of Escherichia coli sepsis; settings: 10 mg/kg i.v. bolus then 60 μg/kg/min infusion
# [13] = system: alternative pathway of complement activation (C3) in sera from rats; settings: read-out: IC50 of haemolytic activity
# [14] = system: alternative pathway of complement activation (C3) in sera from guinea pigs; settings: read-out: IC50 of haemolytic activity
# [15] = system: alternative pathway of complement activation (C3) in sera from mice; settings: read-out: IC50 of haemolytic activity
# [16] = human, in vivo
# [17] = system: OVA-induced allergic airway inflammation; settings: intranasal 10 μg every fourth day, 3 weeks
# [18] = system: IL-4/IL-13-mediated effects in murine model of allergy; settings: 50 μg pre and post OVA, then 30 μg twice a day, day 1 to 8
# [19] = 1.0 g/liter in drinking water, 8 days
# Sequence of murine CD22 (P35329 22-868): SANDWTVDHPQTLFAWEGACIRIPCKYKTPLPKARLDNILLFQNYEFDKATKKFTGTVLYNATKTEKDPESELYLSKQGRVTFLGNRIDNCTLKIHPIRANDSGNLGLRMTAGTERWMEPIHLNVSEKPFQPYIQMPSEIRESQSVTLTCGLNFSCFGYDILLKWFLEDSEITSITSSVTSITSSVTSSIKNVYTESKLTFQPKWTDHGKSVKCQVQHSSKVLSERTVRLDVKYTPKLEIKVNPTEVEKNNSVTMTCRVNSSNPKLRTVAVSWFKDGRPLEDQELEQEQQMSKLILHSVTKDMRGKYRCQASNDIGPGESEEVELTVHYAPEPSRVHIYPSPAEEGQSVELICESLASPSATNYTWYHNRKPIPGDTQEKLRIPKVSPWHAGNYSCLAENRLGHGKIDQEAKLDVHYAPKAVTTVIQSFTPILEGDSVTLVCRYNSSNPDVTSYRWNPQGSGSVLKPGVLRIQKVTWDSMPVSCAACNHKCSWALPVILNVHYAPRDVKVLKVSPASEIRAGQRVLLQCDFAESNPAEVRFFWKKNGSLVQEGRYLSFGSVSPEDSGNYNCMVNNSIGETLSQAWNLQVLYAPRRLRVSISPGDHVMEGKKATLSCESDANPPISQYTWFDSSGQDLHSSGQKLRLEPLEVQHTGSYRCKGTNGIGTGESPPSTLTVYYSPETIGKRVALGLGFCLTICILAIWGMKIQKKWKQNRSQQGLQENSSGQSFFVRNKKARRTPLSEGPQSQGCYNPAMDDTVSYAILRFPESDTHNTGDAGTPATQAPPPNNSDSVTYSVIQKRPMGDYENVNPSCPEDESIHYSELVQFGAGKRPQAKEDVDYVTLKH
molecule,measurement,setting,value
9-biphenylacetyl-N-glycolylneuraminic acid-α2-6-galactose-β1-4-N-acetylglucosamine-β-ethylamine [6′-^BPANeuGc],"affinity for murine CD22, fold higher than natural ligand NeuGcα2-6Galβ1-4GlcNAc-β-ethylamine",murine CD22,200 fold
"C=C1/C(=C\C=C2/CCC[C@]3(C)[C@@H]([C@H](C)CCCC(C)(C)O)CC[C@@H]23)C[C@@H](O)C[C@@H]1O [1,25-(OH)2D3, 1α,25-dihydroxyvitamin D3]",solubility in 1:5 solution of ethanol:PBS,[1],approx. 0.15 mg/ml
same,solubility in ethanol,[1],approx. 50 mg/ml
same,diabetes development,NOD mice,prevented the development of diabetes; also recorded: prevented diabetes onset
same,treated mice in which appearance of paralysis was prevented,EAE model,70%
same,progression of arthritis and hypercalcemia,[2],effective in inhibiting the progression of arthritis without producing hypercalcemia
same,airway hyper-responsiveness,[3],significantly inhibited airway hyper-responsiveness
CC/C=C\C[C@@H](O)/C=C/C=C\C=C\C=C\[C@@H](O)[C@@H](O)C/C=C\CCC(=O)O [17(R)-Resolvin D1],EC50,[4],~0.03 µM
same,maximal inhibition of leukocyte infiltration,[5],~35%
C=C1CC[C@H](O)C/C1=C/C=C1\CCC[C@]2(C)[C@@H]([C@H](C)CCCC(C)(C)O)CC[C@@H]12 [25-OH-D3],adverse effects,"multiple sclerosis; 1,000 to 40,000 IU/day",no adverse effects
same,number of new lesions by MRI,"multiple sclerosis; oral 4,000-40,000 IU/day, 28 weeks",significant decrease in the number of new lesions
same,serum level to be kept to avoid toxicity,based on experiments in the rat,below 250 ng/ml
same,serum level at which toxicity occurs,"rat, in vivo",≥ 500 ng/mL
"CC(=O)Oc1ccccc1C(=O)O [ASA, acetylsalicylic acid]",IC50,NF-kappa B translocation,~3000 µM
same,IC50,IL-4 gene transcription,~1000 µM
Nc1ncnc2c1ncn2[C@@H]1O[C@H](COP(=O)(O)OP(=O)(O)OP(=O)(O)O)[C@@H](O)[C@H]1O [ATP],concentration effecting maximal migration of phagocytes,phagocytes,about 100 nM
same,"maximal migration of phagocytes, increase",phagocytes,threefold
"CSC[C@H](NC(=O)CC[C@H](N)C(=O)O)C(=O)NCC(=O)O [GSM, S-Methylglutathione]",protection against deleterious effects of TNF-alpha on contraction,[6],protected
"CC(=O)N[C@@H](CS)C(=O)O [NAC, N-acetyl-L-cysteine]",cytotoxicity in resting T cells,"peripheral blood T cells; 1 mM to 20 mM, 3 day period, seven donors",nontoxic
same,T cell function and growth,peripheral blood T cells; 10 mM,effective enhancer of T cell function
same,decrease of ovalbumin-specific IgE,[7]; 0.5 g/liter in drinking water,~30%
same,decrease of ovalbumin-specific IgG1,[7]; 0.5 g/liter in drinking water,~30%
same,decrease of ovalbumin-specific IgE response,[7]; [19],more than 70%
same,decrease of ovalbumin-specific IgG1 response,[7]; [19],more than 70%
same,protection against deleterious effects of TNF-alpha on contraction,[6],not protected
same,safety and efficacy of high doses,cystic fibrosis,safe and effective
"O=C([O-])c1ccccc1O.[Na+] [SA, sodium salicylate]",solubility in water,[1]; 20° C.,2000 µg/mL
NC(N)=NCCC[C@H](NC(=O)COCC(c1ccccc1)c1ccccc1)C(=O)O [SB290157],in vivo half-life,[8],short in vivo half-life
same,blood pressure effect,[9],rapid and transient hypertension
O=c1ccn([C@@H]2O[C@H](COP(=O)(O)OP(=O)(O)OP(=O)(O)O)[C@@H](O)[C@H]2O)c(=O)[nH]1 [UTP],concentration effecting maximal migration of phagocytes,phagocytes,about 100 nM
same,"maximal migration of phagocytes, increase",phagocytes,threefold
C=C1/C(=C\C=C2/CCC[C@]3(C)[C@@H]([C@H](C)CCCC(C)C)CC[C@@H]23)C[C@@H](O)C[C@@H]1O [alfacalcidiol],patients going into remission,rheumatoid arthritis,45%
same,patients with improvement of disease activity,rheumatoid arthritis,89%
C=C1/C(=C\C=C2/CCC[C@]3(C)[C@@H]([C@H](C)/C=C/[C@@H](O)C4CC4)CC[C@@H]23)C[C@@H](O)C[C@@H]1O [calcipotriol],systemic toxicity on topical use,psoriasis,without systemic toxicity
same,solubility in 1:5 solution of ethanol:PBS,[1],approx. 0.15 mg/ml
same,solubility in ethanol,[1],approx. 50 mg/ml
same,"effect on calcium metabolism, times less than 1,25-(OH)2D3",calcium metabolism,100-200 times
same,antigen-specific CD8+ T cell priming,[10],abolished antigen-specific CD8+ T cell priming
same,time detectable in serum by HPLC,[11]; i.v. 10 μg/kg,up to 5 min
same,time detectable in serum by HPLC,[11]; i.v. 50 μg/kg,up to 10 min
same,"rate of clearance, times higher than for 1,25-(OH)2D3","[11]; rat, in vivo",approximately 140 times
C=C1CC[C@H](O)C/C1=C/C=C1\CCC[C@]2(C)[C@@H]([C@H](C)CCCC(C)C)CC[C@@H]12 [cholecalciferol],children experiencing asthma exacerbation,asthma exacerbation,17%
CC[C@H](C)[C@H](N)C(=O)N[C@H]1CSSC[C@@H](C(=O)N[C@H](C(N)=O)[C@@H](C)O)NC(=O)[C@H](CCCN=C(N)N)NC(=O)[C@H](Cc2cnc[nH]2)NC(=O)[C@H](Cc2cnc[nH]2)NC(=O)CNC(=O)[C@H](Cc2c[nH]c3ccccc23)NC(=O)[C@H](CC(=O)O)NC(=O)[C@H](CCC(N)=O)NC(=O)[C@H](C(C)C)NC(=O)[C@H](C(C)C)NC1=O [compstatin],procoagulant response and organ protection,[12],decrease the procoagulant response
CC/C=C\C[C@H](O)/C=C/C=C\C=C\C=C\[C@@H](O)[C@@H](O)C/C=C\CCC(=O)O [resolvin D1],EC50,[4],~0.03 µM
MT-hsp65: 65 kDa heat shock protein of Mycobacterium tuberculosis,diabetes development,NOD/Lt mice; single i.p. 50 μg emulsified in IFA,developed within 30 days after the treatment diabetes
same,diabetes development,NOD/Lt mice; single i.p. injection in PBS,did not cause the development of diabetes
PMX53,half-life,[8]; in vivo,1.17 h
same,safety and tolerability,[16],safe and well tolerated
TFGLQLELT [nonapeptide 180-188],rats showing clinical symptoms of adjuvant arthritis during pretreatment,"adjuvant arthritis; i.p. 100 μg in FIA, 35 days before induction",none of the rats
same,rats completely protected against subsequently induced adjuvant arthritis,adjuvant arthritis; three times 100 μg in FIA before induction,11 out of 16
vitamin D,relative risk of type 1 diabetes over the subsequent 30 years,type 1 diabetes; doses of exactly 50 μg/day,0.22
same,relative risk of type 1 diabetes over the subsequent 30 years,type 1 diabetes; doses of over 50 μg/day (2000 IU/d) during infancy,0.14
B1,outcome versus SIT with OVA only,[17],did not produce significantly different results
same,humoral immune responses to OVA and allergic symptoms,[18],completely abrogated
